Assays:
[1] = Clearance in rat at 1 mg/kg, iv and 2 mg/kg, po; type: ADME, organism-based; settings: in vivo
Prolyl endopeptidase FAP = target: T1, Prolyl endopeptidase FAP (Homo sapiens, UniProt Q12884); assay: Inhibition of FAP
T1 sequence (Q12884 whole entry): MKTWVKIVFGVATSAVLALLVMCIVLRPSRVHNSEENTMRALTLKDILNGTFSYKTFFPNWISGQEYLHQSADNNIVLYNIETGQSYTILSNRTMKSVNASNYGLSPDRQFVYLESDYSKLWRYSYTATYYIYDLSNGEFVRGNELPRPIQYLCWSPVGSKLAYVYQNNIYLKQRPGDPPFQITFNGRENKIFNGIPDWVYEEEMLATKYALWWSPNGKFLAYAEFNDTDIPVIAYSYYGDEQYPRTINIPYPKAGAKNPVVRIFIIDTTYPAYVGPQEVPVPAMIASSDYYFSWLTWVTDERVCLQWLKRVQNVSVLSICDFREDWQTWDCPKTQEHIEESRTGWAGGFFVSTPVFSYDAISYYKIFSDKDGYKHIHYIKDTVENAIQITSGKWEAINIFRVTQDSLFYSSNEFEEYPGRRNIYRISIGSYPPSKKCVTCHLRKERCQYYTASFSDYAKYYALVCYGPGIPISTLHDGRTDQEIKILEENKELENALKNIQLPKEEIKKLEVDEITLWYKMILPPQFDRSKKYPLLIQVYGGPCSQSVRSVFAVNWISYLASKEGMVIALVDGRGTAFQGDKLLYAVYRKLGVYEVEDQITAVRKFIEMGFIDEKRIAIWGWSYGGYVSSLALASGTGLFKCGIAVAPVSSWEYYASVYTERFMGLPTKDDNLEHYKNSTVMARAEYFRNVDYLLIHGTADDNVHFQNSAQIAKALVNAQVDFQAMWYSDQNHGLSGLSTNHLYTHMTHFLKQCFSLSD

[2] = Cmax in rat at 1 mg/kg, iv and 2 mg/kg, po; type: ADME, organism-based; settings: in vivo
[3] = Oral bioavailability in rat at 2 mg/kg; type: ADME, organism-based; settings: in vivo
Dipeptidyl peptidase 4 = Dipeptidyl peptidase 4 (Homo sapiens, UniProt P27487)
Dipeptidyl peptidase 8 = Dipeptidyl peptidase 8 (Homo sapiens, UniProt Q6V1X1); assay: Inhibition of DPP8
[4] = Half life in rat at 1 mg/kg, iv and 2 mg/kg, po; type: ADME, organism-based; settings: in vivo
Dipeptidyl peptidase 2 = Dipeptidyl peptidase 2 (Homo sapiens, UniProt Q9UHL4); assay: Inhibition of QPP
Dipeptidyl peptidase 9 = Dipeptidyl peptidase 9 (Homo sapiens, UniProt Q86TI2); assay: Inhibition of DPP9
Sequence of Dipeptidyl peptidase 9 (Q86TI2 whole entry): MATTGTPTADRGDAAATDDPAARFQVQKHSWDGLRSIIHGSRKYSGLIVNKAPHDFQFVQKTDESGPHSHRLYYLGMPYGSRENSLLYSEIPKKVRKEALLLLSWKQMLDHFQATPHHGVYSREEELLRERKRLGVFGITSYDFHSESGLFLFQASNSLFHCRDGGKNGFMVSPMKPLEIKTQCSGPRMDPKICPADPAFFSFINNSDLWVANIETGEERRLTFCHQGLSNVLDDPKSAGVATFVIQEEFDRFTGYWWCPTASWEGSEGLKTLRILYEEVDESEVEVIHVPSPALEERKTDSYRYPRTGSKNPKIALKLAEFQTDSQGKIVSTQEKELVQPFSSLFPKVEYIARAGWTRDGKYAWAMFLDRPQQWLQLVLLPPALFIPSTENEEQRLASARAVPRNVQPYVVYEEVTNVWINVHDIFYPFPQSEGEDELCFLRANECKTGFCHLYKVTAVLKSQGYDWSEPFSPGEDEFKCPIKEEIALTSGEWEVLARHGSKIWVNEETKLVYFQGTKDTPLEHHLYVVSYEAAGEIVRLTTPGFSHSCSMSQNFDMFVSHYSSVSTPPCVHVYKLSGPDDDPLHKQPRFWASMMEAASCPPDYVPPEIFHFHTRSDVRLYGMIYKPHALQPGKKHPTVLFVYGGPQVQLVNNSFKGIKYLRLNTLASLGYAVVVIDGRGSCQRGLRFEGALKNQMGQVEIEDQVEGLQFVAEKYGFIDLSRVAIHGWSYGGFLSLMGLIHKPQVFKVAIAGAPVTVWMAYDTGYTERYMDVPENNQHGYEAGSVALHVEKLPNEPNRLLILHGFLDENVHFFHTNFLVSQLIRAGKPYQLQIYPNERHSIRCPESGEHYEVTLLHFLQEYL

Sequence of Dipeptidyl peptidase 4 (P27487 whole entry): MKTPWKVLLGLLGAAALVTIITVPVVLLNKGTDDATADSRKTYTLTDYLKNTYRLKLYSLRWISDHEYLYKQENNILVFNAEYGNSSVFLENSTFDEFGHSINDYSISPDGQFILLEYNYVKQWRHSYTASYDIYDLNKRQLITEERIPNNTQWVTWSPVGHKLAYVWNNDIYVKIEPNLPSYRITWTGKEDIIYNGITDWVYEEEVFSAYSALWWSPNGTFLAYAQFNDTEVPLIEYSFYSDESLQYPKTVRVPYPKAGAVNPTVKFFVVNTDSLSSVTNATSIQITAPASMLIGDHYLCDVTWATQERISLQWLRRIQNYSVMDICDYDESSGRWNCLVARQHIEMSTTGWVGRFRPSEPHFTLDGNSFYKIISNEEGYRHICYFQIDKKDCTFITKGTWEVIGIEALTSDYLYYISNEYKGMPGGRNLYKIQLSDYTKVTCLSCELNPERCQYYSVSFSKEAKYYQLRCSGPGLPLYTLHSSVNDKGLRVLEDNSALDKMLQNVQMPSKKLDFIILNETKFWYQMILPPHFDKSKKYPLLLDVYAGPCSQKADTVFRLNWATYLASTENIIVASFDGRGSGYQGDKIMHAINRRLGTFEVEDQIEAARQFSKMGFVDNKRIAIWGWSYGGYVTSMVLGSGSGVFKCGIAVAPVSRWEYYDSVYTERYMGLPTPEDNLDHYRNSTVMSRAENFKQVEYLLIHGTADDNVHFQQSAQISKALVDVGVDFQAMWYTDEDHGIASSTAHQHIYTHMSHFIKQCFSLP
Sequence of Dipeptidyl peptidase 8 (Q6V1X1 whole entry): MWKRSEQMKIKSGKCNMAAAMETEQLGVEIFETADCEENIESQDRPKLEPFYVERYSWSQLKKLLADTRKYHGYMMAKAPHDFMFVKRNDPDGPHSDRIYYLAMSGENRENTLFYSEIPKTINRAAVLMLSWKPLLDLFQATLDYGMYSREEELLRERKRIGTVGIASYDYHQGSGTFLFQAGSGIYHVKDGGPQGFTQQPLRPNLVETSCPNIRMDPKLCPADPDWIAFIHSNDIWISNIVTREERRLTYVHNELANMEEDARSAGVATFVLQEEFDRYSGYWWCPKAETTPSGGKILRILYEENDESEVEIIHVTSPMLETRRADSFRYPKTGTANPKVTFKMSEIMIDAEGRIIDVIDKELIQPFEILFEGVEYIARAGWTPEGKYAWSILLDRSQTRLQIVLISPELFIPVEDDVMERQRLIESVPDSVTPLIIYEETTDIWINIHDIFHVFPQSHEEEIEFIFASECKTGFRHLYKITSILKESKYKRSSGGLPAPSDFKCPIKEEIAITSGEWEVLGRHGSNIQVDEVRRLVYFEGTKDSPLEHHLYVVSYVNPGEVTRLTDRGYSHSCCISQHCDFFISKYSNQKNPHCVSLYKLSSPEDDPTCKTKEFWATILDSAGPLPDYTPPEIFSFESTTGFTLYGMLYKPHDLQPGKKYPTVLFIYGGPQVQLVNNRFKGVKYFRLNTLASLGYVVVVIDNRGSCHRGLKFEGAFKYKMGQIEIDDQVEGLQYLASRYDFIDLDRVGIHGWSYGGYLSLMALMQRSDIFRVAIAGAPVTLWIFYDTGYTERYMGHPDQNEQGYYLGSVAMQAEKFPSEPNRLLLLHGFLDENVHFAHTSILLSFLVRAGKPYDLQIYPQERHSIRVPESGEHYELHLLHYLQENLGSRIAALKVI

Row | Structure (SMILES) | clearance [1] [mL/min/kg] | IC50 (Prolyl endopeptidase FAP) [µM] | Cmax [2] [nM] | bioavailability [3] [%] | IC50 (Dipeptidyl peptidase 4) [µM] | IC50 (Dipeptidyl peptidase 8) [µM] | half-life [4] [h] | IC50 (Dipeptidyl peptidase 2) [µM] | IC50 (Dipeptidyl peptidase 9) [µM]
1 | CN([C@H]1CC[C@H]([C@H](N)Cc2cc(F)ccc2F)CC1)S(=O)(=O)c1cccc(C(N)=O)c1 | 204 | > 35 | 19 | 13 |  |  |  |  | 
2 | CN([C@H]1CC[C@H]([C@H](N)Cc2cc(F)ccc2F)CC1)S(=O)(=O)c1ccc(-c2csnn2)cc1 | 180 | > 35 | 190 | 25 | 0.094 | > 100 | 3.5 | 8.5 | 
3 | Cc1noc(C)c1S(=O)(=O)N(C)[C@H]1CC[C@H]([C@H](N)Cc2cc(F)ccc2F)CC1 | 116 | > 35 | 32 | 2.2 | 0.055 | > 100 | 3 | 63 | > 100
4 | NC(=O)[C@@H]1CCCN([C@H]2CC[C@H]([C@H](N)Cc3cc(F)ccc3F)CC2)C1 | 201 | > 35 | 24 | 24 |  |  | 2.1 |  | 
5 | CC(=O)N1CCC([C@H](N)Cc2cc(F)ccc2F)CC1 |  | > 35 |  |  | 0.45 | > 100 |  | 66 | > 100
6 | Cc1ccc(N2CCC([C@H](N)Cc3cc(F)ccc3F)CC2)c(C)n1 | 154 | > 35 | 69 | 22 |  |  | 2.8 |  | 
7 | N[C@H](Cc1cc(F)ccc1F)C1CCN(c2cncnc2)CC1 | 171 | > 35 | 19 | 4.5 |  |  | 0.92 |  | 

Other lines, results leading:

Row | clearance [1] [mL/min/kg] | IC50 (Prolyl endopeptidase FAP) [µM] | Cmax [2] [nM] | bioavailability [3] [%] | IC50 (Dipeptidyl peptidase 4) [µM] | IC50 (Dipeptidyl peptidase 8) [µM] | half-life [4] [h] | IC50 (Dipeptidyl peptidase 2) [µM] | IC50 (Dipeptidyl peptidase 9) [µM] | Structure (SMILES)
8 | 177 | > 35 | 120 | 9.7 | 0.12 |  | 1 | 83 |  | CC(=O)N(C)[C@H]1CC[C@H]([C@H](N)Cc2cc(F)ccc2F)CC1
9 |  | > 35 |  |  | 0.14 | > 100 |  | > 100 | > 100 | CN(C(=O)CCC(=O)O)[C@H]1CC[C@H]([C@H](N)Cc2cc(F)ccc2F)CC1
10 |  | > 35 |  |  | 0.26 | > 100 |  | > 100 | > 100 | CCN(C(C)=O)[C@H]1CC[C@H]([C@H](N)Cc2cc(F)ccc2F)CC1
11 |  | > 35 |  |  | 0.1 | > 100 |  | 51 | > 100 | CC(=O)N(CCCC(F)(F)F)[C@H]1CC[C@H]([C@H](N)Cc2cc(F)ccc2F)CC1

From ChEMBL document CHEMBL1681733, “Synthesis and evaluation of [(1R)-1-amino-2-(2,5-difluorophenyl)ethyl]cyclohexanes and 4-[(1R)-1-amino-2-(2,5-difluorophenyl)ethyl]piperidines as DPP-4 inhibitors” (Bioorg Med Chem Lett, 2011)
